Experimental data from PubChem BioAssay (NCI).
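Values below derive from 48-hour exposures of cells grown in 96-well plates, with endpoints linearly interpolated between the two concentrations bracketing the appropriate inhibition level. The concentration for full growth arrest is given as TGI.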

Key:
Assay in all cases: NCI-60 cell line screen, 48 h
NCI/ADR-RES ovarian = system: NCI/ADR-RES ovarian
MDA-MB-231 breast = system: MDA-MB-231 breast
LOX IMVI melanoma = system: LOX IMVI melanoma
EKVX NSCLC = system: EKVX NSCLC
SNB-75 CNS = system: SNB-75 CNS
SK-OV-3 ovarian = system: SK-OV-3 ovarian
MCF7 breast = system: MCF7 breast
SNB-19 CNS = system: SNB-19 CNS
NCI-H460 lung = system: NCI-H460 lung
A498 renal = system: A498 renal
NCI-H522 lung = system: NCI-H522 lung
TK-10 renal = system: TK-10 renal
MALME-3M melanoma = system: MALME-3M melanoma
SF-539 CNS = system: SF-539 CNS
NCI-H23 lung = system: NCI-H23 lung
UACC-257 melanoma = system: UACC-257 melanoma
MDA-MB-435 = system: MDA-MB-435
OVCAR-8 ovarian = system: OVCAR-8 ovarian

| SMILES | TGI (NCI/ADR-RES ovarian) | TGI (MDA-MB-231 breast) | TGI (LOX IMVI melanoma) | TGI (EKVX NSCLC) | TGI (SNB-75 CNS) | TGI (SK-OV-3 ovarian) | TGI (MCF7 breast) | TGI (SNB-19 CNS) | TGI (NCI-H460 lung) | TGI (A498 renal) | TGI (NCI-H522 lung) | TGI (TK-10 renal) | TGI (MALME-3M melanoma) | TGI (SF-539 CNS) | TGI (NCI-H23 lung) | TGI (UACC-257 melanoma) | TGI (MDA-MB-435) | TGI (OVCAR-8 ovarian) |
| --- | --- | --- | --- | --- | --- | --- | --- | --- | --- | --- | --- | --- | --- | --- | --- | --- | --- | --- |
| C[C@H]1[C@H]2[C@H](C[C@@]3(C)C4=CC[C@H]5C(C)(C)[C@@H](OC6OCC(O)C(O)C6O)CC[C@@]56C[C@@]46CC[C@]23C)O[C@@]2(O)[C@@H]1OC(C)(C)[C@H]2O (stereo partly drawn) | 9.94 µM | 6.9 µM | 6.28 µM | 2.61 µM | 6 µM | 4.55 µM | 1.72 µM | 8.4 µM | 7.83 µM | 4.95 µM | 2.42 µM | 3.95 µM | 3.79 µM | 6.88 µM | 3.31 µM | 4.7 µM | 2.17 µM | 1.81 µM |
| CC(/C=C/c1ccccc1)=N\NC(=S)N/N=C(C)/C=C/c1ccccc1 | 99.5 µM | 33.9 µM | 28.8 µM | > 100 µM | 48.7 µM | > 100 µM | > 100 µM | 74.7 µM | 25.6 µM | 7.51 µM | 69 µM | 46 µM | > 100 µM | 47.2 µM | > 100 µM | > 100 µM | > 100 µM | 64.5 µM |
| O=C(O)CCC1C(=O)C2CCN1CC2 (stereo not drawn) | > 100 µM | > 100 µM | > 100 µM | > 100 µM | > 100 µM | > 100 µM | > 100 µM | > 100 µM | > 100 µM | > 100 µM | > 100 µM | > 100 µM | > 100 µM | > 100 µM | > 100 µM | > 100 µM | > 100 µM | > 100 µM |
| CC(=O)n1nc(-c2[nH]c(C)c(-c3nn(C(C)=O)c(=S)o3)c2C)oc1=S | > 100 µM | > 100 µM | > 100 µM | > 100 µM | > 100 µM | > 100 µM | > 100 µM | > 100 µM | > 100 µM | > 100 µM | > 100 µM | > 100 µM | > 96.6 µM | > 100 µM | > 100 µM | > 100 µM | > 100 µM | > 100 µM |
| C#CCC(O)c1ccc(OC)c(OCc2ccccc2)c1 (stereo not drawn) | > 100 µM | > 100 µM | > 100 µM | > 100 µM | 78.4 µM | > 100 µM | > 100 µM | > 100 µM | > 100 µM | > 100 µM | > 100 µM | > 100 µM | > 100 µM | > 100 µM | > 100 µM | > 100 µM | > 100 µM | > 100 µM |
| COc1ccc(NC(=O)CSc2nc(C)nc3c2sc(=S)n3-c2ccccc2)cc1 | > 10 µM | > 10 µM | > 10 µM | > 10 µM | 8.21 µM | > 10 µM | > 10 µM | > 10 µM | > 10 µM | > 10 µM | > 10 µM | > 10 µM | > 10 µM | 4.97 µM | > 10 µM | > 10 µM | > 10 µM | > 10 µM |
| O=C(N[C@H](CO)[C@H](O)c1ccc([N+](=O)[O-])cc1)C(Cl)Cl | > 100 µM | > 100 µM | > 100 µM | > 100 µM | > 100 µM | > 100 µM | > 100 µM | > 100 µM | > 100 µM | > 100 µM | > 100 µM | > 100 µM | > 100 µM | > 100 µM | > 100 µM | > 100 µM | > 100 µM | > 100 µM |
| C=CC(=O)C#Cc1cnc(OC)nc1OC | > 86.7 µM | 38.1 µM | 20.5 µM | > 72 µM | 20.5 µM | > 100 µM | 30.6 µM | > 58.9 µM | > 59.9 µM | > 69.1 µM | 42.7 µM | 35.2 µM | 53.3 µM | 30.5 µM | 37.6 µM | 20.3 µM | 51.5 µM | > 73.6 µM |
| O=C(NCCc1ccccn1)c1ccc2cc(C(=O)N3CC(CCl)c4ccc([N+](=O)[O-])cc43)[nH]c2c1 (stereo not drawn) | > 100 µM | > 66.8 µM | > 100 µM | > 100 µM | > 100 µM | 46 µM | > 100 µM | 87.5 µM | > 100 µM | > 100 µM | > 86.7 µM | 66.7 µM | > 100 µM | > 100 µM | > 100 µM | > 100 µM | > 100 µM | > 86.9 µM |
| CC(C)=NC(C(=O)O)C(C)(C)S (stereo not drawn) | > 100 µM | > 100 µM | > 100 µM | > 100 µM | > 100 µM | > 100 µM | > 100 µM | > 100 µM | > 100 µM | > 100 µM | > 100 µM | > 100 µM | > 100 µM | > 100 µM | > 100 µM | > 100 µM | > 100 µM | > 100 µM |
| CC(O)C1(O)C(O)CC(OC2c3cc4c(c(O)c3[C@@H]3C[C@@]2(C)OC32C=c3cc[nH]c3=N2)C(=O)c2cccc(O)c2C4=O)OC1C (stereo partly drawn) | 18 µM | 3.89 µM | 3.17 µM | 3.6 µM | 8 µM | 9.47 µM | 1.69 µM | 11.3 µM | 4.03 µM | 2.75 µM | 1.09 µM | 7.32 µM | 2.15 µM | 2.79 µM | 3.81 µM | 3.12 µM | 3.14 µM | 4.75 µM |
